According to patent publication US9976165B2, “Methods for increasing molecular diversity of polyketides and non-ribosomal proteins” (Isomerase Therapeutics Limited, priority 2013, dated 2018):

Experiments:
[1] = Murine PLP T cell proliferation assay (PLP assay); format: cell-based; details: Mus musculus, off-target (mTOR-driven) immunosuppressive potency
Method: Activity of mTOR inhibitors was measured in two different antigen-specific murine T cell proliferation assays (as described in Young et al., 2000). […] In a second type of assay, lymph nodes obtained from PLP TCR transgenic mice are simulated with PLP peptide in culture in a primary stimulation assay.

[2] = target: FKBP12 (Homo sapiens, UniProt P62942); experiment: FKBP12 PPIase assay (inhibition of peptidyl-prolyl isomerase activity); format: biochemical; details: 6 concentrations in duplicate, data fitted to a Ki curve
Chain of FKBP12 (P62942 whole entry, species assumed): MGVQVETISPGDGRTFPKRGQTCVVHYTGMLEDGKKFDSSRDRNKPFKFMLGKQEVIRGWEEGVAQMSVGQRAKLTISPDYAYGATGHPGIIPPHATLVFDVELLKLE
Method: The first order rate equation was fitted to the absorbance data to obtain a rate constant. A catalytic rate (Kenz) was calculated from the enzymatic rate minus the background rate. Kenz v inhibitor concentration was plotted to obtain the Ki value. […] All compounds were assayed at 6 concentrations in duplicate and the data fitted to a Ki curve to afford a Ki value with standard error (SE).

Structure (SMILES) | IC50 [1] | Ki [2]
CO[C@H]1C[C@@H]2CC[C@@H](C)[C@@](O)(O2)C(=O)C(=O)N2CCCC[C@H]2C(=O)OC([C@H](C)C[C@H]2CC[C@H](O)CC2)C[C@@H](O)CC(=O)[C@H](C)CC[C@H](C)/C=C/C=C/C=C/1C (stereo partly drawn) [Compound 4] | 4460 nM | 
CO[C@H]1C[C@@H]2CC[C@@H](C)[C@](O)(CC(=O)N3CCCC[C@H]3C(=O)OC([C@H](C)C[C@@H]3CC[C@@H](O)[C@H](O)C3)C/C=C(\C)[C@@H](O)CC(=O)[C@H](C)CC[C@H](C)/C=C/C=C/C=C/1C)O2 (stereo partly drawn) [Compound 9] |  | 180 nM
CO[C@H]1C[C@@H]2CC[C@@H](C)[C@@](O)(O2)C(=O)C(=O)N2CCCC[C@H]2C(=O)O[C@H](/C(C)=C/C[C@H](O)[C@H](C)C[C@H]2CC[C@H](O)CC2)CC(=O)[C@H](C)C[C@H](C)/C=C/C=C/C=C/1C [Compound 21] |  | 95 nM
